Among the data in ChEMBL document CHEMBL2163249, “Exploration of natural compounds as sources of new bifunctional scaffolds targeting cholinesterases and beta amyloid aggregation: the case of chelerythrine” (Bioorg Med Chem, 2012) are inhibition values, retold here.

The target of assay [1] is Acetylcholinesterase (Electrophorus electricus) (UniProt O42275). As to conditions: at 2 mg/mL.
Description: Inhibition of electric eel AChE at 2 mg/ml by Ellman's method
The target of assay [2] is Cholinesterase (Equus caballus) (UniProt P81908). The conditions noted are these: at 2 mg/mL.
Cholinesterase (Equus caballus), sequence (P81908 whole entry): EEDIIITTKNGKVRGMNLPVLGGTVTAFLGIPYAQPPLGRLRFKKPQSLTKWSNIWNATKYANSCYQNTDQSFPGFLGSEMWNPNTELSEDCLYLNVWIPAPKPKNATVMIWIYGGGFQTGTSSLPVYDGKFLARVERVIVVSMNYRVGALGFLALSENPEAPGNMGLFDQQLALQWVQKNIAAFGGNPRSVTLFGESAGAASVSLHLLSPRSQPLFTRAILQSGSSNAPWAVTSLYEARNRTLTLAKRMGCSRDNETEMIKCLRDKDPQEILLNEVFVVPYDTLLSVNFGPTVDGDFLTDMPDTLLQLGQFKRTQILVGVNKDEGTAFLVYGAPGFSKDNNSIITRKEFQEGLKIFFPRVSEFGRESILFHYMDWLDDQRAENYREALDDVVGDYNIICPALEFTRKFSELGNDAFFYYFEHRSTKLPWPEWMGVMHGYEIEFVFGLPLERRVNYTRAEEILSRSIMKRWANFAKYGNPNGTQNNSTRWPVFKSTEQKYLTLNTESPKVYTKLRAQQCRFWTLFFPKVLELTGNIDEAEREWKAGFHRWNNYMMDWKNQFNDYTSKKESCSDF
Description: Inhibition of horse BChE at 2 mg/ml by Ellman's method

Acetylcholinesterase (Electrophorus electricus), sequence (O42275 24-633 limits assumed): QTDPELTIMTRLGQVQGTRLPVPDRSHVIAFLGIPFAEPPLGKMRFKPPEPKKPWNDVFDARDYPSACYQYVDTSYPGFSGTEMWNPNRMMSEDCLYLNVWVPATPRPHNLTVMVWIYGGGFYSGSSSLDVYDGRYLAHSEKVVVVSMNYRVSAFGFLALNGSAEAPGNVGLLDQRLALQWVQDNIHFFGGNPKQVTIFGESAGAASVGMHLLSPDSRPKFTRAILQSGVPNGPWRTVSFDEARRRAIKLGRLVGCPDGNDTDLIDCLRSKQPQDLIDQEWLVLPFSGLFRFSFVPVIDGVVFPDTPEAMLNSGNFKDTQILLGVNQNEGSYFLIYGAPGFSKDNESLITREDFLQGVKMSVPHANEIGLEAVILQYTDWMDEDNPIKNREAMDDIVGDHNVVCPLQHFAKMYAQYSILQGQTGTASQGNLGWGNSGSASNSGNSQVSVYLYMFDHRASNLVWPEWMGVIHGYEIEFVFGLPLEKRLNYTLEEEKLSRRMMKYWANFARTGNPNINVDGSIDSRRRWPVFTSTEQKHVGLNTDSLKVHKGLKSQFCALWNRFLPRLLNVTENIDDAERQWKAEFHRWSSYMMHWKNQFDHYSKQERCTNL

The inhibition is the change of the read-out against control, counted positive when it falls. Turning to `COC[C@H]1OC(=O)c2coc3c2[C@@]1(C)C1=C(C3=O)[C@@H]2CCC(=O)[C@@]2(C)C[C@H]1OC(C)=O`, the inhibition was 16.2% in assay [1] and -6.29% in assay [2].

For `C[C@H]1CCC/C=C/[C@@H]2C[C@H](O)C[C@H]2[C@H](O)/C=C/C(=O)O1`, the inhibition was -3.21% in assay [1] and 5.24% in assay [2].

On to `CN1CCc2cc(O)c(O)cc2C1Cc1ccc(O)c(O)c1` (configuration not stated), for which the results for the inhibition in assay [1] and in assay [2] were 28.1% and 24.1%, respectively.

As to `COc1ccc(-c2cc(=O)c3c(OC)c(OC)c(OC)cc3o2)cc1OC`, the inhibition in assay [1] stood at 29.6%; in assay [2], 17.1%.

On to `CC(=O)c1c(O)c(C)c(O)c(Cc2c(O)c3c(c(C(=O)/C=C/c4ccccc4)c2O)OC(C)(C)C=C3)c1O`, for which the inhibition amounted to 15.8% in assay [1] and 4.24% in assay [2].

Take `CN1CCc2cc3c(c4c2[C@H]1Cc1ccccc1-4)OCO3`: the values for the inhibition in assay [1] and in assay [2] were 34.2% and 25.9%, respectively.

For the molecule `CO[C@H](C)[C@](O)(C(=O)OCC1=CCN2CC[C@H](O)[C@@H]12)C(C)C`, the inhibition was 21.3% in assay [1] and 1.48% in assay [2].

For the molecule `O=C1C[C@@H](c2ccc(O)c(O)c2)Oc2cc(O)cc(O)c21`, the results for the inhibition in assay [1] and in assay [2] were 20.2% and -0.11%, respectively.

Take `CCCC(=O)O[C@@H]1[C@@H](C)[C@@]2(O)[C@@H](C=C(CO)C[C@]3(O)C(=O)C(C)=C[C@@H]23)[C@@H]2C(C)(C)[C@]12OC(=O)CCC` (stereo in doubt; form 1): the inhibition in assay [1] is 22.5%; in assay [2] it was 0.87%.

As to `CCN1C[C@]2(OC(=O)c3ccccc3NC(C)=O)CC[C@H](OC)[C@@]34[C@@H]2C[C@@H]([C@@H]13)[C@@]1(O)C[C@H](OC)[C@H]2C[C@@H]4[C@]1(O)[C@H]2OC`, the figures for the inhibition in assay [1] and in assay [2] were 1.48% and -7.41%, respectively.

Regarding `O=C1CCC[C@@H]2[C@H]3CCCN4CCC[C@@H](CN12)[C@@H]34`, the inhibition in assay [1] is -1.14%; in assay [2], 22.4%.

As for `CC1=CC(=O)c2c(O)cccc2C1=O`, the inhibition in assay [1] amounted to 31.8%; in assay [2], 9.94%.

As for `Cc1cc(O)c2c(c1)C(=O)c1cc(O)cc(O)c1C2=O`, the inhibition stood at 24.3% in assay [1] and 1.03% in assay [2].

With `C=C[C@H]1CN2CC[C@H]1C[C@H]2[C@H](O)c1ccnc2ccccc12`, the values for the inhibition in assay [1] and in assay [2] were 3.63% and -0.03%, respectively.

On to `COC(=O)C1=CO[C@@H](C)[C@@H]2CN3CCc4c([nH]c5ccccc45)[C@@H]3C[C@H]12`, for which the inhibition in assay [1] was 22%; in assay [2], 89.1%.

For the molecule `COc1cc(O)c2c(=O)c(O)c(-c3ccc(O)c(O)c3)oc2c1`, the inhibition in assay [1] was found to be 23.7%; in assay [2] it was 3.5%.

On to `CC1(C)[C@@H](O)C[C@H]2[C@](C)(O)[C@@H]3CC[C@@H]4[C@@H](O)[C@@]3(C[C@@H](O)[C@@]21O)C[C@@]4(C)O`, for which the results for the inhibition in assay [1] and in assay [2] were -8.91% and 4.52%, respectively.

Consider `CC1=C2[C@H]3OC(=O)[C@@H](C)[C@@H]3CC[C@@]2(C)C=CC1=O`, for which the figures for the inhibition in assay [1] and in assay [2] were 3.63% and -3.62%, respectively.

In the case of `COc1cc(-c2oc3cc(O)cc(O)c3c(=O)c2OC2O[C@H](CO)[C@@H](O)[C@H](O)[C@H]2O)cc(OC)c1O` (some centres not stated), the inhibition in assay [1] was 3.25%; in assay [2], 2.12%.

For `C[C@H]1CC[C@@]2(OC1)O[C@H]1C[C@H]3[C@@H]4CC[C@@H]5C[C@@H](O)CC[C@]5(C)[C@H]4CC[C@]3(C)[C@H]1[C@@H]2C`, the inhibition in assay [1] was -3.09%; in assay [2] it was -2.96%.

For `CC(=O)O[C@H]1C(=O)[C@@]2(C)[C@H]([C@H](OC(=O)c3ccccc3)[C@]3(O)C[C@H](OC(=O)[C@H](O)[C@@H](NC(=O)c4ccccc4)c4ccccc4)C(C)=C1C3(C)C)[C@]1(OC(C)=O)CO[C@@H]1C[C@@H]2O`, the inhibition in assay [1] was 12.5%; in assay [2] it was -2.88%.

As for `CN1[C@@H]2CC[C@H]1C[C@@H](OC(=O)C(CO)c1ccccc1)C2` (some centres not stated), the results for the inhibition in assay [1] and in assay [2] were 15.2% and 4.01%, respectively.

`CC1=C(/C=C/C(C)=C\C=C\C(C)=C\C(=O)O)C(C)(C)CCC1`: the inhibition in assay [1] is 14.3%; in assay [2] it was -2.78%.

As to `C[C@H]1CCCC(=O)CCC/C=C/c2cc(O)cc(O)c2C(=O)O1`, the inhibition in assay [1] was 1.81%; in assay [2] it was -1.04%.

Take `CO[C@@H]1[C@H](O)C[C@@H](O[C@@H]2C[C@H](Oc3cc4cc5c(c(O)c4c(O)c3C)C(=O)[C@@H](O[C@H]3C[C@@H](O[C@H]4C[C@@H](O[C@H]6C[C@](C)(O)[C@@H](OC(C)=O)[C@H](C)O6)[C@H](O)[C@@H](C)O4)[C@H](O)[C@@H](C)O3)[C@H]([C@H](OC)C(=O)[C@@H](O)[C@@H](C)O)C5)O[C@H](C)[C@@H]2OC(C)=O)O[C@@H]1C`: the inhibition in assay [1] amounted to 5.47%; in assay [2], 3.95%.

Consider `C=C1C(=O)[C@]23[C@H](CC[C@@H]1[C@@H]2O)[C@]12CO[C@@]3(O)[C@H](O)[C@H]1C(C)(C)CC[C@@H]2O`, for which the inhibition in assay [1] is -3.57%; in assay [2] it was -8.92%.

On to `CCOC(=O)Oc1c(OC)cc(C(=O)O[C@@H]2C[C@@H]3CN4CCc5c([nH]c6cc(OC)ccc56)[C@H]4C[C@@H]3[C@H](C(=O)OC)[C@H]2OC)cc1OC`, for which the inhibition in assay [1] was -6.1%; in assay [2], -6.04%.

For the molecule `CC[C@@H](C)[C@@H](O)[C@H](C)C(=O)[C@H](C)/C=C(\C)C[C@H](C)[C@@H]1OC(=O)[C@H]1CC`, the inhibition in assay [1] turned out to be 2.88%; in assay [2] it was 99.8%.

Take `C[C@H]1C(=O)O[C@@H]2CCN3CC=C(COC(=O)[C@](C)(O)[C@]1(C)O)[C@H]23`: the inhibition in assay [1] was 19.5%; in assay [2], 4.32%.

Turning to `CN1CCc2cc3c(cc2[C@H]1[C@@H]1OC(=O)c2c1ccc1c2OCO1)OCO3`, the inhibition in assay [1] was 20.7%; in assay [2], 0.63%.

Turning to `CO[C@@H]1[C@H](OC(=O)/C=C/C=C/C=C/C=C/C(=O)O)CC[C@]2(CO2)[C@H]1[C@@]1(C)O[C@@H]1CC=C(C)C`, the inhibition is -8.57% in assay [1] and -3.3% in assay [2].

On to `COc1cc2c(cc1OC)[C@H](C)NCC2`, for which the results for the inhibition in assay [1] and in assay [2] were -3.39% and -4.57%, respectively.

As to `COc1cccc2c1C(=O)c1c(O)c3c(c(O)c1C2=O)C[C@@](O)(C(C)=O)C[C@@H]3O[C@H]1C[C@H](N)[C@H](O)[C@H](C)O1`, the inhibition in assay [1] is 18.1%; in assay [2], -0.13%.

With `O=C1c2cccc(O)c2C(=O)c2c(O)cc(CO)cc21`, the figures for the inhibition in assay [1] and in assay [2] were 14.6% and -0.88%, respectively.

As for `CC(=O)O[C@H]1CC[C@]2(C=O)[C@H]3CC[C@]4(C)[C@@H](C5=CC(=O)OC5)CC[C@]4(O)[C@@H]3CC[C@]2(O)C1`, the results for the inhibition in assay [1] and in assay [2] were -2.93% and -2.95%, respectively.

As for `O=[N+]([O-])c1ncc[nH]1`, the results for the inhibition in assay [1] and in assay [2] were 4.77% and 14.4%, respectively.

As to `O=c1cc(-c2ccccc2)oc2cc(O)c(O)cc12`, the results for the inhibition in assay [1] and in assay [2] were 23.1% and 1.82%, respectively.

As to `COc1cc2c(cc1OC)[C@H]1[C@@H](C)c3ccc(OC)c(OC)c3CN1CC2`, the inhibition in assay [1] was 13.9%; in assay [2] it was -0.53%.

As for `O=c1cc(-c2ccccc2)oc2cc(O)cc(O)c12`, the results for the inhibition in assay [1] and in assay [2] were 14.6% and 2.93%, respectively.

As for `Cc1c2c(c(O)c3c(O)cccc13)C(=O)O[C@H]2[C@@H]1[C@H](O)C(=O)C(C(N)=O)=C(O)[C@H]1N(C)C`, the values for the inhibition in assay [1] and in assay [2] were 16.9% and 7.3%, respectively.

Consider `Oc1cc(O)c2c(c1)O[C@H](c1ccc(O)c(O)c1)[C@H](O)C2`, for which the figures for the inhibition in assay [1] and in assay [2] were -4.81% and 0.47%, respectively.

For `Cn1c(-c2ccc3c(c2)OCO3)cc(=O)c2ccccc21`, the inhibition in assay [1] amounted to 31.1%; in assay [2] it was 9.48%.

With `COC1=CC(=O)O[C@@H](CCc2ccc3c(c2)OCO3)C1`, the inhibition in assay [1] was determined as 24.8%; in assay [2] it was 3.66%.

Regarding `COc1c(O)cc2c(c1O)[C@@H]1O[C@H](CO)[C@@H](O)[C@H](O)[C@H]1OC2=O`, the inhibition is 7.33% in assay [1] and -0.62% in assay [2].

With `O=C1C[C@@H](c2ccc(O)c(O)c2)Oc2cc(O[C@@H]3O[C@H](CO)[C@@H](O)[C@H](O)[C@H]3O)cc(O)c21`, the inhibition in assay [1] was 25.4%; in assay [2], -9.51%.

In the case of `COc1ccc(-c2oc3cc(O)cc(O)c3c(=O)c2O)cc1O`, the inhibition was found to be 25.9% in assay [1] and 3.18% in assay [2].

Turning to `Oc1cc(O)c2c(c1)O[C@H](c1ccc(O)c(O)c1)[C@@H](O)C2`, the inhibition in assay [1] is 7.03%; in assay [2] it was -5.96%.

Consider `COC1=C(C(C)=O)C2=C(C)Cc3c(OC)c(=O)c(O)c4cc(OC)c5c(OC)cc(O)c6c(c2c3c4c56)C1=O`, for which the inhibition is 4.6% in assay [1] and -0.88% in assay [2].

In the case of `O=c1cc(-c2ccc(O)cc2)oc2cc(O)cc(O)c12`, the inhibition in assay [1] came to 18.4%; in assay [2] it was 4.5%.

As for `O=C(/C=C/c1ccc(O)c(O)c1)O[C@@H]1C[C@](O)(C(=O)O)C[C@@H](O)[C@H]1O`, the inhibition in assay [1] was found to be 10.8%; in assay [2] it was 4.8%.

For `C[C@H]1CC[C@@H]2[C@@H](C)[C@H]3[C@H](C[C@H]4[C@@H]5CC[C@H]6C[C@@H](O)CC[C@]6(C)[C@H]5CC[C@]34C)N2C1`, the inhibition amounted to 5.43% in assay [1] and 41.9% in assay [2].

`O=C1/C(=C/c2ccc(O)c(O)c2)Oc2cc(O)ccc21`: the inhibition is 24.4% in assay [1] and -2.22% in assay [2].

As to `COc1cc2ccc(=O)oc2cc1O`, the inhibition came to 4.78% in assay [1] and 0.6% in assay [2].

As for `CC1=C(O)C(=O)C=C2C1=CC=C1[C@@]2(C)CC[C@@]2(C)[C@@H]3C[C@](C)(C(=O)O)CC[C@]3(C)CC[C@]12C`, the inhibition in assay [1] turned out to be 22.1%; in assay [2] it was 1.01%.

Regarding `CC[C@H](C)C(=O)O[C@H]1CCC=C2C=C[C@H](C)[C@H](CC[C@@H]3C[C@@H](O)CC(=O)O3)[C@H]21`, the inhibition in assay [1] is -9.46%; in assay [2], 7.39%.

With `O=C1/C(=C/c2ccc(O)c(O)c2)Oc2c1ccc(O[C@@H]1O[C@H](CO)[C@@H](O)[C@H](O)[C@H]1O)c2O`, the values for the inhibition in assay [1] and in assay [2] were 22.4% and 3.06%, respectively.
